Laboratory results published in patent US11427539B2, “Beta-hydroxy heterocyclic amines and their use in the treatment of hyperglycaemia” (ATROGI AB, priority 2017, dated 2022).
Structures can show the parent of a compound that is named as a salt.

Columns and labels:
[1] = test system: Intracellular cAMP levels in differentiated cells (L6-myotubes); experiment: Measurement of intracellular cAMP levels (alpha screen cAMP kit); type: cell-based; settings: 0.25 h; agonist final concentration 1×10-^5, 15 min; differentiated cells; relative to isoproterenol; read-out: Biological example 2: intracellular cAMP levels, activity compared to that of isoproterenol
Method: L6-myoblasts were grown in Dulbecco's Modified Eagle's Medium (DMEM) containing 4.5 g/l glucose supplemented with 10% fetal bovine serum, 2 mM L-Glutamine, 50 U/ml penicillin, 50 μg/ml streptomycin and 10 mM HEPES. Cells were plated at 1×10^5 cells per ml in 24-well plates. After reaching 90% confluence the cells were grown in medium containing 2% FBS for 7 days where upon cells differentiated into myotubes. Differentiated cells were serum-starved over night and stimulated with agonist, final concentration 1×10-^5, for 15 min in stimulation buffer (HBSS supplemented with 1% BSA, 5 mM HEPES and 1 mM IBMX, pH 7.4) The medium was then aspirated and to end the reaction 100 μL of 95% EtOH was added to each well of a 24-well plate and cells were kept in −20° C. over night. The EtOH was let to evaporate and 500 μL of lysis buffer (1% BSA, 5 mM HEPES and 0.3% Tween-20, pH 7.4) was added to each well before put in −80° C. for 30 min and then kept in −20° C. Intracellular cAMP levels were detected using an alpha screen cAMP kit (6760635D from Perkin Elmer). The activity for each compound is compared to that of isoproterenol.

[2] = test system: Differentiated L6-myotubes; experiment: Glucose uptake in differentiated L6-myotubes (3H-2-deoxy-glucose); type: cell-based; settings: agonist final concentration 1×10^−5; L6-myotubes; 3H-2-deoxy-glucose uptake; relative to isoproterenol; read-out: Biological example 1: glucose uptake, activity compared to that of isoproterenol

Row | Structure (SMILES) | Emax [1] | Emax [2]
1 | CCC[C@@H]1CCC[C@@H]([C@H](O)c2cccc(F)c2)N1 [Example 29, (R)-(3-Fluorophenyl)((2S,6R)-6-propylpiperidin-2-yl)methanol hydrochloride] | < 25% | 25 to 50%
2 | CCC[C@@H]1CCC[C@@H]([C@H](O)c2cccc(Cl)c2)N1 [Example 30, (R)-(3-Chlorophenyl)((2S,6R)-6-propylpiperidin-2-yl)methanol hydrochloride] | < 25% | > 75%
3 | CCC[C@@H]1CCC[C@@H]([C@H](O)c2cccc(O)c2)N1 [Example 32, 3-((R)-hydroxy((2S,6R)-6-propylpiperidin-2-yl)methyl)phenol Hydrochloride] | < 25% | > 75%
4 | CCC[C@H]1CCC[C@@H]([C@H](O)c2cccc(F)c2)N1 [Example 34, (R)-(3-Fluorophenyl)((2S,6S)-6-propylpiperidin-2-yl)methanol hydrochloride] | < 25% | 50 to 75%
5 | CCC[C@H]1CCC[C@@H]([C@@H](O)c2cccc(F)c2)N1 [Example 35, (S)-(3-Fluorophenyl)((2S,6S)-6-propylpiperidin-2-yl)methanol hydrochloride] | < 25% | 25 to 50%
6 | CCC[C@H]1CCC[C@@H]([C@H](O)c2cccc(Cl)c2)N1 [Example 36, (R)-(3-Chlorophenyl)((2S,6S)-6-propylpiperidin-2-yl)methanol hydrochloride] | < 25% | 25 to 50%
7 | CCC[C@H]1CCC[C@@H]([C@H](O)c2cccc(O)c2)N1 [Example 37, (R)-(3-Hydroxyphenyl)((2S, 6S)-6-propylpiperidin-2-yl)methanol] | < 25% | 50 to 75%
8 | CCC[C@@H]1CC[C@H]([C@@H](O)c2cccc(F)c2)N1 [Example 39, (S)-(3-Fluorophenyl)((2R,5R)-5-propylpyrrolidin-2-yl)methanol Hydrochloride] | < 25% | 50 to 75%
9 | CCC[C@@H]1CC[C@H]([C@@H](O)c2cccc(O)c2)N1 [Example 40, 3-((S)-Hydroxy((2R,5R)-5-propylpyrrolidin-2-yl)methyl)phenol] | < 25% | 25 to 50%
10 | CCC[C@H]1CC[C@@H]([C@H](O)c2cccc(F)c2)N1 [Example 41, (R)-(3-fluorophenyl)((2S,5S)-5-propylpyrrolidin-2-yl)methanol Hydrochloride] | < 25% | 50 to 75%
11 | CCC[C@H]1CC[C@@H]([C@@H](O)c2cccc(F)c2)N1 [Example 42, (S)-(3-Fluorophenyl)((2S,5S)-5-propylpyrrolidin-2-yl)methanol Hydrochloride] | < 25% | 50 to 75%
12 | CCC[C@@H]1CC[C@@H]([C@H](O)c2cccc(F)c2)N1 [Example 43, (R)-(3-Fluorophenyl)((2S,5R)-5-propylpyrrolidin-2-yl)methanol Hydrochloride] | < 25% | 25 to 50%
13 | CCC[C@@H]1CC[C@@H]([C@@H](O)c2cccc(F)c2)N1 [Example 44, (S)-(3-Fluorophenyl)((2S,5R)-5-propylpyrrolidin-2-yl)methanol Hydrochloride] | < 25% | 50 to 75%
14 | CCC[C@H]1CC[C@H]([C@H](O)c2cccc(F)c2)N1 [Example 45, (R)-(3-Fluorophenyl)((2R,5S)-5-propylpyrrolidin-2-yl)methanol] | < 25% | 50 to 75%
15 | CCC[C@@H]1CC[C@H]([C@H](O)c2cccc(Cl)c2)N1 [Example 47, (R)-(3-Chlorophenyl)((2R,5R)-5-propylpyrrolidin-2-yl)methanol Maleate] | < 25% | 50 to 75%
